Data reported in ChEMBL document CHEMBL1201862, “PubChem BioAssay data set” (2004).
Calls of active or inactive are those of the source.

How the values were obtained:
HeLa = test: HeLa cell cytotoxicity, dose response, cytotoxicity control for MITF activator project, CellTiter-Glo luminescence, cherry-pick samples (AID 540259); type: functional, cell-based; settings: Homo sapiens
[1] = Shn3 3'UTR reporter inhibitors, dose response, cell-based, Clone20 osteoblasts, firefly luciferase, cherry-picked (AID 624132); type: functional;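 note: firefly luciferase luminescence from reporter carrying the Shn3 3'UTR in osteoblasts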
cells [2] = type: functional, cell-based
[3] = target: Heat shock protein HSP 90-alpha (Homo sapiens, UniProt P07900); type: functional, organism-based
[4] = control 3'UTR Renilla luciferase suppression, dose response, counter-screen for Shn3 inhibitor project, cell-based, Clone20-Shn3RL, cherry-picked (AID 624133); type: functional
Exodeoxyribonuclease V = target: T1, Exodeoxyribonuclease V (Escherichia coli (strain K12), UniProt P04993+P07648+P08394); test: E. coli RecBCD inhibitors, dose response, counter-screen for AddAB inhibitor project, absorbance, V66 E. coli, mutant T4 phage (AID 492957); type: functional, cell-based, Escherichia coli str. K-12 substr. MG1655
T1 sequence (P04993 whole entry): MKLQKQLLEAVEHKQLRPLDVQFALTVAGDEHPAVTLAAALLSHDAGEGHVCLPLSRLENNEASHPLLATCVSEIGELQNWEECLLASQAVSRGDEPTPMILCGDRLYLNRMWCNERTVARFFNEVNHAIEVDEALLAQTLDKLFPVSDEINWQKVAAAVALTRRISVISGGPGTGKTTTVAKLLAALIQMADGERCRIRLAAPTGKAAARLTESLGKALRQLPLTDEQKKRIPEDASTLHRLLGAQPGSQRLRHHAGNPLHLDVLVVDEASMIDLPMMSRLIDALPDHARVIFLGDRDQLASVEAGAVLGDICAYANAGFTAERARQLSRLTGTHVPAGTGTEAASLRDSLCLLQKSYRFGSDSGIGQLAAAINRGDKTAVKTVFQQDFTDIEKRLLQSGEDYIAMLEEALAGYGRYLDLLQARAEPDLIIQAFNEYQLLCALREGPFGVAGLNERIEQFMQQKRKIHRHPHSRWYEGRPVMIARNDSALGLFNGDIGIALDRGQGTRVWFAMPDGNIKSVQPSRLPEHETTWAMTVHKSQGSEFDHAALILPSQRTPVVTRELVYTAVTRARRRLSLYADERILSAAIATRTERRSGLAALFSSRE
T1 sequence (P07648 whole entry): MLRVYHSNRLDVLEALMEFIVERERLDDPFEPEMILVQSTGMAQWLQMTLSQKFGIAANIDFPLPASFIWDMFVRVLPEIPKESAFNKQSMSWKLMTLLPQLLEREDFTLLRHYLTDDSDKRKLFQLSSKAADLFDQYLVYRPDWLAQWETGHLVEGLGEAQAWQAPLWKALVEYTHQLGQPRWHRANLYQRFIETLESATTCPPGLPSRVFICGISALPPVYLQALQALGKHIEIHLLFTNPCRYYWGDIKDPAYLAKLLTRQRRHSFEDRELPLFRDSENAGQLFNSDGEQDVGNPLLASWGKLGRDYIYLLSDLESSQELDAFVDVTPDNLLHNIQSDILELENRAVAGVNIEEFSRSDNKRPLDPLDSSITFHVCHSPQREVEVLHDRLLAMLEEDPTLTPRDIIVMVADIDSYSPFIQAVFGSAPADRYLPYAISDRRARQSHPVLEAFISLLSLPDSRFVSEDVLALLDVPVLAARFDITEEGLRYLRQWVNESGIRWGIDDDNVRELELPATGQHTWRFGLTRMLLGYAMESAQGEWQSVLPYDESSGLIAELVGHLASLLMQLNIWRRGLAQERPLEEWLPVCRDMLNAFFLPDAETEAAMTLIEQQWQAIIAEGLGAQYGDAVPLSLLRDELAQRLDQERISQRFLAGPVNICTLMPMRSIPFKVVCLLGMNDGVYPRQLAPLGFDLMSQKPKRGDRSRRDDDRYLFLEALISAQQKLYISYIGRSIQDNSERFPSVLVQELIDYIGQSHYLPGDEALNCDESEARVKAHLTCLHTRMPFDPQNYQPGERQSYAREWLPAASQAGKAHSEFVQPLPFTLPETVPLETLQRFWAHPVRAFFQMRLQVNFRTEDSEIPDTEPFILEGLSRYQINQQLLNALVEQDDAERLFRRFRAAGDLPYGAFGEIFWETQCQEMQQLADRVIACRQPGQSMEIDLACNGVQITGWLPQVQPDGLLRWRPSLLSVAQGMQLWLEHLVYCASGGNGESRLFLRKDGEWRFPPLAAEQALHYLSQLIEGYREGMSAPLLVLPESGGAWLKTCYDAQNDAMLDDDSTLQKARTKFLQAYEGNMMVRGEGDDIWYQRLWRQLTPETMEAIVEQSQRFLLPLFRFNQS
T1 sequence (P08394 whole entry): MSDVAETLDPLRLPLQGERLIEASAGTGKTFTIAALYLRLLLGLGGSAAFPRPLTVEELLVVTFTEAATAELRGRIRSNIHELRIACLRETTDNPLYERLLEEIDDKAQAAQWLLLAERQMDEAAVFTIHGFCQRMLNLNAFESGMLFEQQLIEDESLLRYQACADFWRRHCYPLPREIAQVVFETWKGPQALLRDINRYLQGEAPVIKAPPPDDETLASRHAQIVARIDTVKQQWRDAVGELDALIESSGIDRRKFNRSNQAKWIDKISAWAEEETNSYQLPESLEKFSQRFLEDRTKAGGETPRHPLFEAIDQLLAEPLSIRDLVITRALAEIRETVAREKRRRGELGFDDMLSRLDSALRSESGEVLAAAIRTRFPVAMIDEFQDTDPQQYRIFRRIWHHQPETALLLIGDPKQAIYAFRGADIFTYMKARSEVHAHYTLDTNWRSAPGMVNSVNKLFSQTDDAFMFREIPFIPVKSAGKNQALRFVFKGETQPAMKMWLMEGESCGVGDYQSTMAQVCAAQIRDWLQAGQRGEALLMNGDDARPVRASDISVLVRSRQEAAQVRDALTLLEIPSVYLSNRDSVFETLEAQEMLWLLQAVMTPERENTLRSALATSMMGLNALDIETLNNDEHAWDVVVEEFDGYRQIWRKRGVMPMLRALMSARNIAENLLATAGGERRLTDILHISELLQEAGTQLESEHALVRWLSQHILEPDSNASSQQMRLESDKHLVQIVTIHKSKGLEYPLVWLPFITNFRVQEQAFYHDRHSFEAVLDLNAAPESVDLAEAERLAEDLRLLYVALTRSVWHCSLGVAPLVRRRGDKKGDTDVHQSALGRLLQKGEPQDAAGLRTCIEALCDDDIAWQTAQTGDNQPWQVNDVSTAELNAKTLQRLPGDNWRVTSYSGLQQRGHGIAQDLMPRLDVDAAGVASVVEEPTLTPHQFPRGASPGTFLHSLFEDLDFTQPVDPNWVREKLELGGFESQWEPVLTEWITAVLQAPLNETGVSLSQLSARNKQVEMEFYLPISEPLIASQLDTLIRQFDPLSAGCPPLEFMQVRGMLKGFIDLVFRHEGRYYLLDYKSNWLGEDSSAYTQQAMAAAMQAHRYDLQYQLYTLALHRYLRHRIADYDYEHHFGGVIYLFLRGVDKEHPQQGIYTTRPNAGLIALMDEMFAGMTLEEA

[5] = HepG2 cell cytotoxicity, dose response, cytotoxicity control for Shn3 inhibitor project, CellTiter-Glo, cherry-picked (AID 624134); type: functional, cell-based
cells [6] = type: functional, cell-based; remark: listed apart in the source
[7] = Counterscreen for AddAB inhibitors: absorbance-based bacterial cell-based high throughput dose response assay for inhibitors of bacterial viability. [Related pubchem assays (depositor defined):AID435030, AID449728, AID449731, AID488942, AID488955, AID488956]; type: functional
HEK293 [8] = test: inhibitors of LMP1-driven NF-kB reporter, dose response, cell-based, HEK293, luciferase, cherry-pick (AID 588343); type: functional; settings: Homo sapiens
[9] = THP-1 cell cytotoxicity, dose response, cytotoxicity control for non-replicating M. tuberculosis project (AID 489025); type: functional
Steroidogenic factor 1 = Steroidogenic factor 1 (Homo sapiens, UniProt Q13285); test: Counterscreen for inverse agonists of the liver receptor homolog-1 (LRH-1; NR5A2): Luminescence-based cell-based high throughput dose response assay to identify inverse agonists of the Steroidogenic Factor 1 Nuclear Receptor (SF1; NR5A1).; type: functional
Steroidogenic factor 1, sequence (Q13285 whole entry): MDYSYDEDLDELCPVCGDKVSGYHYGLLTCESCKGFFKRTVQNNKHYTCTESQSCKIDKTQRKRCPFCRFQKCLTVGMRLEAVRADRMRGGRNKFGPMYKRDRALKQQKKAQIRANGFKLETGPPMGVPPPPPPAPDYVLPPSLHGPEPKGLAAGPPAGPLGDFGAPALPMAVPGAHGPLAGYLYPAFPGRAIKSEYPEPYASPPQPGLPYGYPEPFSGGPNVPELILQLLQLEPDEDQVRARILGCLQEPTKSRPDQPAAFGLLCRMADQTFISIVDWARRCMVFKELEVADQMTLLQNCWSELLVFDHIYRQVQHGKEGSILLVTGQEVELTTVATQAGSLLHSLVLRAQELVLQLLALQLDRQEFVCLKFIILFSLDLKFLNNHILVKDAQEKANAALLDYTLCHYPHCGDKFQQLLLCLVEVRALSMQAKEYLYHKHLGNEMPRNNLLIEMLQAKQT

[10] = Vero E6 cell cytotoxicity, dose response, cytotoxicity control for non-replicating M. tuberculosis project, secondary assay (AID 492998); type: functional, VeroE6; settings: Vero C1008
[11] = target: Nuclear receptor subfamily 5 group A member 2 (Homo sapiens, UniProt O00482); type: functional, cell-based;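 note: HEK293T cells transfected with LRH-1 and a StAR promoter luciferase reporter; potency for inhibitors that lower LRH-1 driven reporter light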
Nuclear receptor subfamily 5 group A member 2, sequence (O00482 whole entry): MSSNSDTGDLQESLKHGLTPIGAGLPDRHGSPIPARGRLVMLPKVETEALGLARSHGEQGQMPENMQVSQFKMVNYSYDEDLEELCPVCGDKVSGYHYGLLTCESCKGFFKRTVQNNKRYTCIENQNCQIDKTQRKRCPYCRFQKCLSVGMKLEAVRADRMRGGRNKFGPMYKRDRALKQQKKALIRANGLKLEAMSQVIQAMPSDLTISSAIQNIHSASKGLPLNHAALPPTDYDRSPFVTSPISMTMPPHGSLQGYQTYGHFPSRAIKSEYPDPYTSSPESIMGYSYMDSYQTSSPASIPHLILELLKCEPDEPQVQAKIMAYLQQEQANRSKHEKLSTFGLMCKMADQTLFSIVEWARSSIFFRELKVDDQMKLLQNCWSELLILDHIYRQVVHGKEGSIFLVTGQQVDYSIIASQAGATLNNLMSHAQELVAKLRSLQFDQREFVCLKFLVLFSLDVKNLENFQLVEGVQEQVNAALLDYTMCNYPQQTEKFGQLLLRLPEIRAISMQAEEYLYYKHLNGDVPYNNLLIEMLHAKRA

cells [12] = type: functional
[13] = StAR promoter reporter inhibition counter-screen, dose response, counter-screen for LRH-1 inverse agonist project, cell-based, luminescence, luciferase reporter (AID 651969); type: functional
HEK293 [14] = test: NOD1 signaling inhibitors, primary screen, cell-based, luminescence, uHTS (AID 1578); type: functional; settings: Homo sapiens
HEK293 [15] = test: cells; type: functional, cell-based; settings: Homo sapiens
[16] = target: Nucleotide-binding oligomerization domain-containing protein 2 (Homo sapiens, UniProt Q9HC29); test: NOD2 signaling inhibitors, cell-based, luminescence, uHTS, HEK293 (AID 1566); type: functional
Nucleotide-binding oligomerization domain-containing protein 2, sequence (Q9HC29 whole entry, the tested form may be a part): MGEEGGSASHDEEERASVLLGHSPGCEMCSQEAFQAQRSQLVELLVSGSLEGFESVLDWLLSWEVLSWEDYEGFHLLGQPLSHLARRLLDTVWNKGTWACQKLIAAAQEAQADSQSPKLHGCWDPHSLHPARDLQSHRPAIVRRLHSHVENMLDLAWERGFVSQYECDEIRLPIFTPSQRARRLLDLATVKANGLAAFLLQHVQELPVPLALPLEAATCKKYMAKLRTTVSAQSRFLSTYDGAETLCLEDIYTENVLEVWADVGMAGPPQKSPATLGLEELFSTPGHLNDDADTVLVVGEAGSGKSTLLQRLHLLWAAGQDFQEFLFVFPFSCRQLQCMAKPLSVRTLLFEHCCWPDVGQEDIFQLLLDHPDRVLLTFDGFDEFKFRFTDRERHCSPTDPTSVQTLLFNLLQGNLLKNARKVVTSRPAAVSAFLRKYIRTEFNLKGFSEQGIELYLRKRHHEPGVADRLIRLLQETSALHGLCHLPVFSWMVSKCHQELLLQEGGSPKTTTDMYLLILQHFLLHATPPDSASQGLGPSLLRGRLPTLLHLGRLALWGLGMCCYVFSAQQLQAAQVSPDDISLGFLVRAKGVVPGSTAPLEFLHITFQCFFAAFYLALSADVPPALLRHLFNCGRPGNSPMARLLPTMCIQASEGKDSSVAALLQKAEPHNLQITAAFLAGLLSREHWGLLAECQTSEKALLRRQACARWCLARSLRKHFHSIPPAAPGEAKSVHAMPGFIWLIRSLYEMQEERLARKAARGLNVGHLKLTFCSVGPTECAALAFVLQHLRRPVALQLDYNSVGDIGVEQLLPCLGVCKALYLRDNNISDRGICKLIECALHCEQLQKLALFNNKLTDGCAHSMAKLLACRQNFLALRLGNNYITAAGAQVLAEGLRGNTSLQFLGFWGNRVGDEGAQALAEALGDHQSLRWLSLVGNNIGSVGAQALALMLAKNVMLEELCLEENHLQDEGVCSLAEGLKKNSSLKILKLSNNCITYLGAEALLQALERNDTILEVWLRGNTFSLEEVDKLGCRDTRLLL

HEK293 [17] = test: cells; type: functional, cell-based; settings: Homo sapiens; remark: listed apart in the source
[18] = cytotoxicity in HEK-293T cells, dose response, cytotoxicity control for BCR NF-kB inhibitor project, luminescence, B-cell screen hits (AID 489021); type: functional, cell-based;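 note: HEK-293T cells carrying an NF-kB luciferase reporter; cells exposed to compound for about 14 hours before viability readout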
HEK293 [19] = test: NOD2 signaling inhibitors in MDP-stimulated cells, cell-based, uHTS, luminescence (AID 2001); type: functional; settings: Homo sapiens
HEK293 [20] = test: cells; type: functional, cell-based; settings: Homo sapiens; remark: listed apart in the source
Phospholipase A2 = Phospholipase A2 (Homo sapiens, UniProt P04054); type: functional;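 note: confirmatory dose-response counterscreen on phospholipase A2, testing hits that came from an ultra-high-throughput screen for ATG4B inhibitors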
Phospholipase A2, sequence (P04054 whole entry): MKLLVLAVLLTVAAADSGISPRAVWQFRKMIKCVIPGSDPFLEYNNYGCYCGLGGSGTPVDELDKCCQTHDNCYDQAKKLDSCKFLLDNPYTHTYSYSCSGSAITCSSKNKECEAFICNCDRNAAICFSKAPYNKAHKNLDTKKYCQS

[21] = target: Luciferin 4-monooxygenase (Photinus pyralis, UniProt P08659); test: firefly luciferase enzyme inhibitors, dose response, biochemical, luminescence (AID 1891)
Luciferin 4-monooxygenase, sequence (P08659 whole entry): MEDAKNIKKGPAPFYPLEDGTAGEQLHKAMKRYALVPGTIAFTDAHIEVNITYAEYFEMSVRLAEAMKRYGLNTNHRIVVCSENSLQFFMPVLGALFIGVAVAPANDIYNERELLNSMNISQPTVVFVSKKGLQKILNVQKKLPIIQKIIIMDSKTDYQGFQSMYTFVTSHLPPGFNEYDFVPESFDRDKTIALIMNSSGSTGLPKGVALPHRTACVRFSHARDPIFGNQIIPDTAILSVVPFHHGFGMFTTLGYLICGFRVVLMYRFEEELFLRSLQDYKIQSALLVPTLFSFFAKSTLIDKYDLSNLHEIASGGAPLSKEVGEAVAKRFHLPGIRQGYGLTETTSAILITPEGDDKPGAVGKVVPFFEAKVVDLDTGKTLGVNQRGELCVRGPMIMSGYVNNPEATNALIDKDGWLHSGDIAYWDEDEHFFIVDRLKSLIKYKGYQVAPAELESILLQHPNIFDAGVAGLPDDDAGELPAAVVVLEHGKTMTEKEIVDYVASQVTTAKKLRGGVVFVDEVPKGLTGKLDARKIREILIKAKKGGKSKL

[22] = Luminescence Cell-Based Dose Confirmation HTS to Identify Inhibitors of Platelet Dense Granule Release. [Related pubchem assays: 1663 (Primary HTS), 1678 (Summary of Project)]; type: functional
Cysteine protease ATG4B = target: T2, Cysteine protease ATG4B (Homo sapiens, UniProt Q9Y4P1); type: functional;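 note: Fluorescence-based dose-response confirmation assay measuring inhibition of ATG4B activity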
T2 sequence (Q9Y4P1 whole entry): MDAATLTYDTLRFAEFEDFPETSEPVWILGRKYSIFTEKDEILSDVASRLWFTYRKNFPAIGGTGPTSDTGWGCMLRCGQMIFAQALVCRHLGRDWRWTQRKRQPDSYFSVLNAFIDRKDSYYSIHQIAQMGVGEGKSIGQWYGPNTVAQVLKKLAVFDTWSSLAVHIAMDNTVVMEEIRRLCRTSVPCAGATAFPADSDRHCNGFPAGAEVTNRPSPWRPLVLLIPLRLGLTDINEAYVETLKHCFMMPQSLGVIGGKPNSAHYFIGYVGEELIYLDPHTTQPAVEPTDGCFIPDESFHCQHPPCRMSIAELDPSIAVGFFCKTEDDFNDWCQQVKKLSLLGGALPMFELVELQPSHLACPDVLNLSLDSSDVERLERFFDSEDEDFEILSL

CAAX prenyl protease 2 = target: T3, CAAX prenyl protease 2 (Homo sapiens, UniProt Q9Y256); test: human Rce1 protease inhibitors, dose response, biochemical, yeast membranes, quenched-peptide fluorescence, cherry-pick (AID 588849)
T3 sequence (Q9Y256 whole entry): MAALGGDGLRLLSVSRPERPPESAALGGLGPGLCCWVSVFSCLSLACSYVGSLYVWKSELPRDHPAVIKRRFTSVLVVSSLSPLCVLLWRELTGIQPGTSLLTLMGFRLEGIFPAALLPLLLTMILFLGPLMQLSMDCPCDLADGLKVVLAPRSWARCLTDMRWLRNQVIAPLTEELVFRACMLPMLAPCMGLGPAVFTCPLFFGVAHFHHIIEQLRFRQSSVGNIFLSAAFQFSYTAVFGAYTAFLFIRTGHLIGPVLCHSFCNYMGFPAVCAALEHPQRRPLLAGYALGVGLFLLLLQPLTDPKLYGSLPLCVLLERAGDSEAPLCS

[23] = target: Voltage-gated inwardly rectifying potassium channel KCNH2 (Homo sapiens, UniProt Q12809); settings: Potency;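 note: confirmatory quantitative high-throughput screen measuring inhibition of hERG channel activity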
Voltage-gated inwardly rectifying potassium channel KCNH2, sequence (Q12809 whole entry): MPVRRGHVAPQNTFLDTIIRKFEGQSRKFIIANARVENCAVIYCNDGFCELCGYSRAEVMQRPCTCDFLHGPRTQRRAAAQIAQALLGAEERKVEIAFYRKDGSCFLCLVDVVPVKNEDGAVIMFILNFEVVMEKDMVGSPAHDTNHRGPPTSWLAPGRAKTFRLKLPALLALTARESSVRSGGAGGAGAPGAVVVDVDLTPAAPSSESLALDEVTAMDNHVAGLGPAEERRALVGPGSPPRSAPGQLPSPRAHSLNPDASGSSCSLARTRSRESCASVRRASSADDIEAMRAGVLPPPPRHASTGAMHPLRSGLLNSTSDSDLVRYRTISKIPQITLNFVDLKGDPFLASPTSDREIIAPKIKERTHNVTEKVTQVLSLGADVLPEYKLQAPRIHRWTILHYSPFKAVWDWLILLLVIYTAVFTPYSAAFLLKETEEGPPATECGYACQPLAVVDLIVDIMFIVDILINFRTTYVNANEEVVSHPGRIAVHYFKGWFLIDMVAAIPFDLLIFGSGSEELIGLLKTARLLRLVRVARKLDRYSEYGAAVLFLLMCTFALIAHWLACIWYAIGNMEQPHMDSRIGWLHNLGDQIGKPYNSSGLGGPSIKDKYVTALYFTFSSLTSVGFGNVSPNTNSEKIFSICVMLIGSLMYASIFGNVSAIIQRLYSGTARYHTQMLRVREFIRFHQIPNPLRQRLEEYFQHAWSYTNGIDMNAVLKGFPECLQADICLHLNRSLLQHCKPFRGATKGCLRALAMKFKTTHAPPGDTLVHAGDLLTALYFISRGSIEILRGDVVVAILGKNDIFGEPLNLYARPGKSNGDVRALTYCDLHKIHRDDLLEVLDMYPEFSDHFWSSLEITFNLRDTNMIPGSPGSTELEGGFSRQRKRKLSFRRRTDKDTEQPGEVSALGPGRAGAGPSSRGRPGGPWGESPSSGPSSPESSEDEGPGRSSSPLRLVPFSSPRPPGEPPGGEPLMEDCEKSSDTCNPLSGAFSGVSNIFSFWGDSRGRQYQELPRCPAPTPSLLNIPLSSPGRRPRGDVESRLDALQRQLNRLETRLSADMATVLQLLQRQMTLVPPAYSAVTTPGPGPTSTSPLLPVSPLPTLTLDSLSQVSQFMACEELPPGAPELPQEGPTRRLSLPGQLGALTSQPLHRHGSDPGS

## COc1ccc(NC2=Nc3ccccc3CC2)cc1
HeLa
  AC50: > 350 µM (inactive)

## CC(C)C(=O)NC(c1cccc([N+](=O)[O-])c1)c1ccc2cccnc2c1O (centres undefined)
[1]
  AC50: 2.57 µM (active)
Cells [2]
  EC50: 6.78 µM (active)
[3]
  AC50: 2.7 µM (active)
[4]
  AC50: 0.924 µM (active)
Exodeoxyribonuclease V
  IC50: > 119 µM (inactive)
[5]
  AC50: 2.17 µM (active)
Cells [6]
  EC50: > 350 µM (not active)
[7]
  IC50: > 119 µM (inactive)
HEK293 [8]
  AC50: 6.46 µM (active)

## Cc1onc(-c2ccccc2)c1C(=O)ON=C(N)c1ccc([N+](=O)[O-])o1
[9]
  CC50: > 40 µM (active)
Steroidogenic factor 1
  IC50: 2.03 µM (active)
[10]
  CC50: > 20 µM (active)
[11]
  IC50: 11.1 µM (inactive)
Cells [12]
  IC50: 6.29 µM (active)
Exodeoxyribonuclease V
  IC50: > 119 µM (inactive)
[13]
  IC50: 35.9 µM (inactive)
[7]
  IC50: 69.7 µM (inactive)

## O=C(CCCN1C(=O)/C(=C/c2ccccc2Cl)SC1=S)NNC(=O)c1ccccc1
HEK293 [14]
  EC50: > 20 µM (inactive)
HEK293 [15]
  IC50: > 20 µM (inactive)
[16]
  EC50: > 20 µM (inactive)
HEK293 [17]
  IC50: 3.13 µM (active)
[18]
  IC50: > 80 µM (inactive)
HEK293 [19]
  IC50: 3.04 µM (active)
HEK293 [20]
  IC50: > 20 µM (inactive)
Phospholipase A2
  IC50: 5.28 µM (active)
[21]
  EC50: > 112 µM (not active)
[22]
  EC50: > 112 µM (not active)
Cysteine protease ATG4B
  IC50: 16.6 µM (active)

## Cc1ccc(S(=O)(=O)Nc2ccccc2C(=O)NCC2CCCO2)cc1 (centres undefined)
CAAX prenyl protease 2
  AC50: 44.8 µM (active)

## CSCc1ccc(C(=O)Nc2cc(C)cc(C)c2)cc1
HeLa
  AC50: 161 µM (active)

## Cc1ccccc1S(=O)(=O)NC(=Nc1nc2ccccc2s1)c1ccccc1
HeLa
  AC50: 263 µM (active)

## COc1ccc2c3c1O[C@H]1C(=O)CC[C@@]4(O)C(C2)N(CC2CC2)CCC314 (some centres undefined)
[23]
  AC50: 17.8 µM (inconclusive)

## CN1[C@@H]2CC[C@H]1C[C@@H](OC(c1ccccc1)c1ccccc1N)C2 (some centres undefined) [AMINOBENZTROPINE]
[23]
  AC50: 11.2 µM (inconclusive)
